In ChEMBL document CHEMBL4507310, “Data for DCP probe A-1211212” (2021):

How the values were obtained:
[1] = molecular target: Vascular endothelial growth factor receptor 3 (Homo sapiens) (UniProt P35916); conditions: Compound concentration 1000.0 nM
[2] = system: Tyrosine-protein kinase ABL1 (Homo sapiens), P00519 [T315I]; conditions: Compound concentration 1000.0 nM
[3] = molecular target: Cyclin-dependent kinase 7 (Homo sapiens) (UniProt P50613); conditions: Compound concentration 1000.0 nM
[4] = molecular target: Bone morphogenetic protein receptor type-2 (Homo sapiens) (UniProt Q13873); conditions: Compound concentration 1000.0 nM
[5] = molecular target: Cyclin-dependent kinase 14 (Homo sapiens) (UniProt O94921); conditions: Compound concentration 1000.0 nM
[6] = molecular target: Dual specificity mitogen-activated protein kinase kinase 7 (Homo sapiens) (UniProt O14733); conditions: Compound concentration 1000.0 nM
[7] = system: Tyrosine-protein kinase ABL1 (Homo sapiens), P00519 [F317I]; conditions: Compound concentration 1000.0 nM
[8] = molecular target: 5-hydroxytryptamine receptor 1B (Homo sapiens) (UniProt P28222); assay: 5-HT1B(h) Eurofins-Cerep binding assay; design: ligand concentration 1 nM; conditions: filed as antagonist, Compound concentration 10.0 uM
5-hydroxytryptamine receptor 1B (Homo sapiens), sequence (P28222 whole entry): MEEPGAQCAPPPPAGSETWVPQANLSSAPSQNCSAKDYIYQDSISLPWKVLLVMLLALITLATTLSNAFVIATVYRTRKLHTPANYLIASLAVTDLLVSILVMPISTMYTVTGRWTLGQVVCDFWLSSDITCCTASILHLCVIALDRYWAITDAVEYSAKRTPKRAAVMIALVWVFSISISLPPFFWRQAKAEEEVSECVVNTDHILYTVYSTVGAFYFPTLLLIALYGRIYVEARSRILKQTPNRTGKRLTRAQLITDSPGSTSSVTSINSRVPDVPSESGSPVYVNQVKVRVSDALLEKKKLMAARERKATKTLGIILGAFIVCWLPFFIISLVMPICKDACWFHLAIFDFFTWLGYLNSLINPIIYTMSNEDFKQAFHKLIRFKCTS

[9] = molecular target: Serine/threonine-protein kinase 33 (Homo sapiens) (UniProt Q9BYT3); conditions: Compound concentration 1000.0 nM
[10] = system: ALK tyrosine kinase receptor (Homo sapiens), Q9UM73 [L1196M]; conditions: Compound concentration 1000.0 nM
ALK tyrosine kinase receptor (Homo sapiens), Q9UM73 [L1196M], sequence (Q9UM73 whole entry L1196M, looked up): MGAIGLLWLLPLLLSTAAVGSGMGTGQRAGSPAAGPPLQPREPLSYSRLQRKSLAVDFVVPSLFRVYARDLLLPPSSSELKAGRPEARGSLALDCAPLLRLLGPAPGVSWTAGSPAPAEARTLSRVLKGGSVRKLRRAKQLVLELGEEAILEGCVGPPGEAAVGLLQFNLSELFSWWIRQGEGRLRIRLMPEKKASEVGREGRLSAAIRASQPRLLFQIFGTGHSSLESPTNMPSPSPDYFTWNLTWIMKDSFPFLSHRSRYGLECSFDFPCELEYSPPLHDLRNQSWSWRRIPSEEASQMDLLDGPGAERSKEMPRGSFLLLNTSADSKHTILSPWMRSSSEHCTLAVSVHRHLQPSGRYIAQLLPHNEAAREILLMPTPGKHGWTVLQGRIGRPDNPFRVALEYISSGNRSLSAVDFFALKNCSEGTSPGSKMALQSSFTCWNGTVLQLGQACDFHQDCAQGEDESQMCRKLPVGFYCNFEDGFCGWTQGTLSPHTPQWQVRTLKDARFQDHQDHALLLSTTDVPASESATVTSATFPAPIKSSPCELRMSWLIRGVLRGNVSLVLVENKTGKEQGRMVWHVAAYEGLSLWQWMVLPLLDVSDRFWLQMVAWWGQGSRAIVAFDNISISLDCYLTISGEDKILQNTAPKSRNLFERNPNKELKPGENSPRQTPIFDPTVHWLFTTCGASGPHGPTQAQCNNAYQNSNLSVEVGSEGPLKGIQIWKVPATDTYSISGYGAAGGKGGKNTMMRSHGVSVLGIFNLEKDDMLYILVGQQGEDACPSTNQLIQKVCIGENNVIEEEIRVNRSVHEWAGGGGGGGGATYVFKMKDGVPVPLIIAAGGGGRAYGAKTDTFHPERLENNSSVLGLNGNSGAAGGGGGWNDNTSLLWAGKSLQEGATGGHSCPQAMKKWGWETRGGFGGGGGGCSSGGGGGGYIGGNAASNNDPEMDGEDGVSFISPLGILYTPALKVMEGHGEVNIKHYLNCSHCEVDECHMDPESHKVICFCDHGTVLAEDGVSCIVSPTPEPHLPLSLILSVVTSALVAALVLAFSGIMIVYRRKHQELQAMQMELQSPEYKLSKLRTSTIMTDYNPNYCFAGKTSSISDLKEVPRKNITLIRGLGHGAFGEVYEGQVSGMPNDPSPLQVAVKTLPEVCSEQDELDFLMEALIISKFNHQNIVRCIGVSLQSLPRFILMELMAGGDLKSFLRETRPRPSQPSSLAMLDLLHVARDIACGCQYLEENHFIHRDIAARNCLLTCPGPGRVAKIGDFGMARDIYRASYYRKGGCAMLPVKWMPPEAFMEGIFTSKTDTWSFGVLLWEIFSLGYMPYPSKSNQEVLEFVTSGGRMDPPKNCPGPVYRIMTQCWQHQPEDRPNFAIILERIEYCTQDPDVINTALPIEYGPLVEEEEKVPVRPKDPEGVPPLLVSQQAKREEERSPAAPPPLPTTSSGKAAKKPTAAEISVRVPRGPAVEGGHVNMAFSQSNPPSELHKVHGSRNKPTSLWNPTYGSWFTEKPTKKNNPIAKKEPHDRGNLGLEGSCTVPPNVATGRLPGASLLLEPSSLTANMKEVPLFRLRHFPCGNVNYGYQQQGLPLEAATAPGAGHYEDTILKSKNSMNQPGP

[11] = molecular target: Protein kinase C epsilon type (Homo sapiens) (UniProt Q02156); conditions: Compound concentration 1000.0 nM
Protein kinase C epsilon type (Homo sapiens), sequence (Q02156 whole entry): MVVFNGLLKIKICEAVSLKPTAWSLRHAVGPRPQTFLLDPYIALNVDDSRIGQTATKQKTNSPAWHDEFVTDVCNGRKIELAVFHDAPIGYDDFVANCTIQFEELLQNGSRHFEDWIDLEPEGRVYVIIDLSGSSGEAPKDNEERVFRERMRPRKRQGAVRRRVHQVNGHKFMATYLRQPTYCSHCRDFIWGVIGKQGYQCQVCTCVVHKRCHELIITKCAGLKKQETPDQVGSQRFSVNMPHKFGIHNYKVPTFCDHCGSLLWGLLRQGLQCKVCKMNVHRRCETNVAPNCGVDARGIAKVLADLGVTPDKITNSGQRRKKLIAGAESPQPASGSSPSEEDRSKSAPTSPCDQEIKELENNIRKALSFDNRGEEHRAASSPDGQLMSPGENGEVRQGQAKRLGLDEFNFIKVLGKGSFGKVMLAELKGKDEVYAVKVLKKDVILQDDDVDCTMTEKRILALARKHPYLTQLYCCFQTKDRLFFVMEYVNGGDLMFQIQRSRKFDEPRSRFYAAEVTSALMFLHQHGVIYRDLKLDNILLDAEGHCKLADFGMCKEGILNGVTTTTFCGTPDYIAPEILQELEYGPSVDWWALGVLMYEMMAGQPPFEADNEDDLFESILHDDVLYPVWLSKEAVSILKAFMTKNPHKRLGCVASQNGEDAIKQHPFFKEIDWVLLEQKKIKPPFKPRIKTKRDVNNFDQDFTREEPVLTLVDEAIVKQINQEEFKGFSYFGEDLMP

[12] = molecular target: Serine/threonine-protein kinase Nek4 (Homo sapiens) (UniProt P51957); conditions: Compound concentration 1000.0 nM
[13] = molecular target: Epidermal growth factor receptor (Homo sapiens) (UniProt P00533); conditions: Compound concentration 1000.0 nM
Epidermal growth factor receptor (Homo sapiens), sequence (P00533 whole entry, canonical isoform): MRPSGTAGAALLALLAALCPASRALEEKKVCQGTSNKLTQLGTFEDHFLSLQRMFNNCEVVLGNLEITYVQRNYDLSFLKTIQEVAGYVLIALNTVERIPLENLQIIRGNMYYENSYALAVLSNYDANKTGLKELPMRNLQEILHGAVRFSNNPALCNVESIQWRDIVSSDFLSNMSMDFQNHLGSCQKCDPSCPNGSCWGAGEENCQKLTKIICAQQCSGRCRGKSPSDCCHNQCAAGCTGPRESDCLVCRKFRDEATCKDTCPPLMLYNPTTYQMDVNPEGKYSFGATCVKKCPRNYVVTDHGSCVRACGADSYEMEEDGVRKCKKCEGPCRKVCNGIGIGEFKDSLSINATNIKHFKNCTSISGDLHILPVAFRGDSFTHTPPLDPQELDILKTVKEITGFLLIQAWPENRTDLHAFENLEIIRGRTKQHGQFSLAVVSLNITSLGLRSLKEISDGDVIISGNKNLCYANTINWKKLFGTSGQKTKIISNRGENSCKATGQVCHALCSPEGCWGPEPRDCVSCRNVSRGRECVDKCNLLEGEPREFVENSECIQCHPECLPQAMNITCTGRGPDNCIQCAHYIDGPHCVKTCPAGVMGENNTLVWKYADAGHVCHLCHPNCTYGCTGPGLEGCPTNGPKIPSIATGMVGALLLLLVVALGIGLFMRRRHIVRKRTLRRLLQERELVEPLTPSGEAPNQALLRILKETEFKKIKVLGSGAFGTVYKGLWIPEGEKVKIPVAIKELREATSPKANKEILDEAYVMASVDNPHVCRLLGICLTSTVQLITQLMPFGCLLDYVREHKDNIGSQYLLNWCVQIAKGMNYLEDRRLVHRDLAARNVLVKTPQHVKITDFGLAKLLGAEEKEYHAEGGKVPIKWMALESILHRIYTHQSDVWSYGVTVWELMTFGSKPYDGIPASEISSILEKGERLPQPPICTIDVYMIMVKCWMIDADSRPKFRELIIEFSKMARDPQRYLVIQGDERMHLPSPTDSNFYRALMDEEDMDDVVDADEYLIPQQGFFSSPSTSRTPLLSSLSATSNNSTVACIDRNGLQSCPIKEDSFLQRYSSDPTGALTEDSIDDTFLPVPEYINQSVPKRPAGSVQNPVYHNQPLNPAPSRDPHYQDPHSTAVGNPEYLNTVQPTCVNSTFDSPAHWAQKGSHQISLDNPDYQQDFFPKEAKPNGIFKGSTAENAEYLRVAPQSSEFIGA

[14] = molecular target: Casein kinase I isoform gamma-3 (Homo sapiens) (UniProt Q9Y6M4); conditions: Compound concentration 1000.0 nM
[15] = molecular target: T1, Muscarinic acetylcholine receptor M1 (Homo sapiens) (UniProt P11229); assay: M1 (h) Eurofins-Cerep binding assay; design: ligand concentration 2 nM; conditions: filed as antagonist, Compound concentration 10.0 uM
T1 sequence (whole entry): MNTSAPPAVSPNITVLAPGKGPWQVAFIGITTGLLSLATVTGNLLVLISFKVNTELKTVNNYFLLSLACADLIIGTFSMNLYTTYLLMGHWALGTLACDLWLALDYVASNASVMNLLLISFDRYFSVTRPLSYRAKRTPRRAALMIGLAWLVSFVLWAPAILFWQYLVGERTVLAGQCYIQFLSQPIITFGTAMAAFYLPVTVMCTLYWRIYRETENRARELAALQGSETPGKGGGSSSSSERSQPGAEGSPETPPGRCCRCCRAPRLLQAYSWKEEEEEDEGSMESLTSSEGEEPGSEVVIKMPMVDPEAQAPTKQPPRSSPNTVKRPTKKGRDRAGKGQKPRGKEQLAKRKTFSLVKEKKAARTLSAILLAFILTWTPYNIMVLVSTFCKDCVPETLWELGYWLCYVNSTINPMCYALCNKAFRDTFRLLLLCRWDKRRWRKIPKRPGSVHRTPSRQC

[16] = molecular target: Glucocorticoid receptor (Homo sapiens) (UniProt P04150); assay: GR (h) Eurofins-Cerep binding assay; design: ligand concentration 1.5 nM; conditions: filed as agonist, Compound concentration 10.0 uM
[17] = molecular target: Serine/threonine-protein kinase TAO2 (Homo sapiens) (UniProt Q9UL54); conditions: Compound concentration 1000.0 nM
[18] = molecular target: Aurora kinase B (Homo sapiens) (UniProt Q96GD4); conditions: Compound concentration 1000.0 nM
[19] = molecular target: Calcium-dependent protein kinase 1 (Plasmodium falciparum) (UniProt P62344); conditions: Compound concentration 1000.0 nM
[20] = molecular target: Insulin receptor (Homo sapiens) (UniProt P06213); conditions: Compound concentration 1000.0 nM
[21] = system: Proto-oncogene tyrosine-protein kinase receptor Ret (Homo sapiens), P07949 [V804L]; conditions: Compound concentration 1000.0 nM
[22] = molecular target: Cyclin-dependent kinase 2 homolog (Plasmodium falciparum (isolate 3D7)) (UniProt P61075); conditions: Compound concentration 1000.0 nM
[23] = molecular target: T2, 5-hydroxytryptamine receptor 1A (Homo sapiens) (UniProt P08908); assay: 5-HT1A (h) Eurofins-Cerep binding assay; design: ligand concentration 0.5 nM; conditions: filed as agonist, Compound concentration 10.0 uM
T2 sequence (whole entry): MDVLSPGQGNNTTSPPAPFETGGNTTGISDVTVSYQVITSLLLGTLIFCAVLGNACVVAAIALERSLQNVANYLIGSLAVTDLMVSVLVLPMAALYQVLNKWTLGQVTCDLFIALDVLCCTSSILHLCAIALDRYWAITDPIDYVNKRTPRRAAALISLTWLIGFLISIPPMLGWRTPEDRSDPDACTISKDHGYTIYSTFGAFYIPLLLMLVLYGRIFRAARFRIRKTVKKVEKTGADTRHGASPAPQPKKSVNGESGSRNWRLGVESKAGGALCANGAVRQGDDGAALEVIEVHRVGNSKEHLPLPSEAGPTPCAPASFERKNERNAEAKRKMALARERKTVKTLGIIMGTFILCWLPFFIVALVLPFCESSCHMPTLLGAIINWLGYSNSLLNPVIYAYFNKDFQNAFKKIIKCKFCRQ

[24] = molecular target: Mitogen-activated protein kinase kinase kinase 5 (Homo sapiens) (UniProt Q99683); conditions: Compound concentration 1000.0 nM
[25] = molecular target: Ribosomal protein S6 kinase alpha-5 (Homo sapiens) (UniProt O75582); conditions: Compound concentration 1000.0 nM
[26] = molecular target: GABA-A receptor; anion channel (Rattus norvegicus) (UniProt O09028+P15431+P18506+P18508+P19969+P20236+P23574+P23576+P28471+P28473+P30191+P62813+P63079+P63138+Q91ZM7+Q9ES14); conditions: Compound concentration 10.0 uM
[27] = molecular target: Delta-type opioid receptor (Homo sapiens) (UniProt P41143); conditions: Compound concentration 10.0 uM
[28] = molecular target: Insulin receptor-related protein (Homo sapiens) (UniProt P14616); conditions: Compound concentration 1000.0 nM
[29] = molecular target: Ribosomal protein S6 kinase alpha-6 (Homo sapiens) (UniProt Q9UK32); conditions: Compound concentration 1000.0 nM
[30] = molecular target: Casein kinase I isoform alpha (Homo sapiens) (UniProt P48729); conditions: Compound concentration 1000.0 nM
[31] = molecular target: Serine/threonine-protein kinase Nek9 (Homo sapiens) (UniProt Q8TD19); conditions: Compound concentration 1000.0 nM
Serine/threonine-protein kinase Nek9 (Homo sapiens), sequence (Q8TD19 whole entry): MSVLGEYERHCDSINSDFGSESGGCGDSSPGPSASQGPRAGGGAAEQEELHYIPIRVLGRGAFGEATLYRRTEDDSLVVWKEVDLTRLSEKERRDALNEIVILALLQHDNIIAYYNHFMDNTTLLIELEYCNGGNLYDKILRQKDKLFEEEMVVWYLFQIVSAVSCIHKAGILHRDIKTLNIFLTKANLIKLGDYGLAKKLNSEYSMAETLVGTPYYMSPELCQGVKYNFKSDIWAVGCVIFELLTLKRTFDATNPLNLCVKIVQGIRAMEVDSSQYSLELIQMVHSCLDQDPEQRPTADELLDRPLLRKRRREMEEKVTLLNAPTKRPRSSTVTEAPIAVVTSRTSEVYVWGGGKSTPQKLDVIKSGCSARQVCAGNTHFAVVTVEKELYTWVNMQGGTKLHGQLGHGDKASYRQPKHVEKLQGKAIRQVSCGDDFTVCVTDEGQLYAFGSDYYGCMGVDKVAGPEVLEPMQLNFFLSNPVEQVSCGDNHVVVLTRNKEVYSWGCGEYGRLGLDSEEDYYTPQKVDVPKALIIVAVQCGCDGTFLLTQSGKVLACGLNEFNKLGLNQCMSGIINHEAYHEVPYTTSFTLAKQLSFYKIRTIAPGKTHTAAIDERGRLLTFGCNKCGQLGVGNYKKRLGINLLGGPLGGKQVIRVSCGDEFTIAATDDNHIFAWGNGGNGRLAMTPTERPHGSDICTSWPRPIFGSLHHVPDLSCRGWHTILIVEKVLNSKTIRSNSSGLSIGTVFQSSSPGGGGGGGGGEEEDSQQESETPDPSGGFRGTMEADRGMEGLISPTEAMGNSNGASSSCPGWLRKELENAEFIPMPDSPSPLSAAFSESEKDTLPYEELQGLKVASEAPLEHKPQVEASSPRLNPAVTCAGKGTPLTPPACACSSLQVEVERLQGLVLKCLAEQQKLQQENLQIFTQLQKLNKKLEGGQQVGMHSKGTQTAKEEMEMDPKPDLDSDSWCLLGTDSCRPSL

[32] = molecular target: Tyrosine-protein kinase Lck (Homo sapiens) (UniProt P06239); conditions: Compound concentration 1000.0 nM

Q: What does the source list for `O=C(NS(=O)(=O)c1ccc(NCC2CCOCC2)c([N+](=O)[O-])c1)c1ccc(N2CCN(Cc3ccc(C(F)(F)F)cc3-c3ccc(Cl)cc3)CC2)cc1Oc1cnc2[nH]ccc2c1` [A-1210227]?
A: residual activity [1]: 100%; residual activity [2]: 100%; residual activity [3]: 96%; residual activity [4]: 100%; residual activity [5]: 100%; residual activity [6]: 100%; residual activity [7]: 100%; % Inhibition of Control Specific Binding (Mean n=2) [8]: -4.9%; residual activity [9]: 100%; residual activity [10]: 100%; residual activity [11]: 100%; residual activity [12]: 100%; residual activity [13]: 84%; residual activity [14]: 75%; % Inhibition of Control Specific Binding (Mean n=2) [15]: -0.2%; % Inhibition of Control Specific Binding (Mean n=2) [16]: -9.4%; residual activity [17]: 82%; residual activity [18]: 100%; residual activity [19]: 82%; residual activity [20]: 89%; residual activity [21]: 100%; residual activity [22]: 100%; % Inhibition of Control Specific Binding (Mean n=2) [23]: -3.4%; residual activity [24]: 82%; residual activity [25]: 95%; inhibition [26]: 17.9%; inhibition [27]: -3.92%; residual activity [28]: 98%; residual activity [29]: 100%; residual activity [30]: 96%; residual activity [31]: 100%; residual activity [32]: 100%

Q: Which residual activity [1] does the source give for `CO[C@H]1CC[C@H](CNc2ccc(S(=O)(=O)NC(=O)c3ccc(N4CCN(CC5=C(c6ccc(Cl)cc6)CC(C)(C)CC5)CC4)cc3Oc3cnc4[nH]ccc4c3)cc2[N+](=O)[O-])CC1` [A-1211212] here?
A: Its residual activity is 89%.

Q: And the residual activity [2]?
A: Its residual activity is 80%.

Q: What about the residual activity [3] of the same molecule?
A: The residual activity was 100%.

Q: What about the residual activity [4] of the same molecule?
A: Its residual activity is 100%.

Q: What about the residual activity [5] of the same molecule?
A: Its residual activity is 100%.

Q: What about the residual activity [6] of the same molecule?
A: Its residual activity is 100%.

Q: And the residual activity [7]?
A: Its residual activity is 100%.

Q: What about the % Inhibition of Control Specific Binding (Mean n=2) [8] of the same molecule?
A: Its % Inhibition of Control Specific Binding (Mean n=2) is -1%.

Q: And the residual activity [9]?
A: The residual activity was 100%.

Q: And the residual activity [10]?
A: The residual activity was 100%.

Q: And the residual activity [11]?
A: The residual activity was 79%.

Q: What about the residual activity [12] of the same molecule?
A: The residual activity was 100%.

Q: And the residual activity [13]?
A: The residual activity was 62%.

Q: What about the residual activity [14] of the same molecule?
A: The residual activity was 91%.

Q: What about the % Inhibition of Control Specific Binding (Mean n=2) [15] of the same molecule?
A: The % Inhibition of Control Specific Binding (Mean n=2) was -7.2%.

Q: And the % Inhibition of Control Specific Binding (Mean n=2) [16]?
A: Its % Inhibition of Control Specific Binding (Mean n=2) is 4.6%.

Q: What about the residual activity [17] of the same molecule?
A: Its residual activity is 86%.

Q: What about the residual activity [18] of the same molecule?
A: The residual activity was 100%.

Q: And the residual activity [19]?
A: The residual activity was 80%.

Q: What about the residual activity [20] of the same molecule?
A: Its residual activity is 91%.

Q: And the residual activity [21]?
A: The residual activity was 88%.

Q: And the residual activity [22]?
A: Its residual activity is 100%.

Q: What about the % Inhibition of Control Specific Binding (Mean n=2) [23] of the same molecule?
A: The % Inhibition of Control Specific Binding (Mean n=2) was -2.7%.

Q: What about the residual activity [24] of the same molecule?
A: The residual activity was 78%.

Q: What about the residual activity [25] of the same molecule?
A: Its residual activity is 90%.

Q: What about the inhibition [26] of the same molecule?
A: The inhibition was 23.6%.

Q: And the inhibition [27]?
A: Its inhibition is 5.68%.

Q: What about the residual activity [28] of the same molecule?
A: The residual activity was 100%.

Q: And the residual activity [29]?
A: The residual activity was 67%.

Q: What about the residual activity [30] of the same molecule?
A: The residual activity was 85%.

Q: And the residual activity [31]?
A: The residual activity was 95%.

Q: And the residual activity [32]?
A: The residual activity was 73%.
